According to PMC10039885, “Unnatural activities and mechanistic insights of cytochrome P450 PikC gained from site-specific mutagenesis by non-canonical amino acids” (Nature Communications, 2023):

Molecular target: T1, PikC (PikCWT; cytochrome P450 CYP107L1) (Streptomyces venezuelae, UniProt O87605)
T1 construct: pET28a-pikC, expressed in E. coli BL21(DE3), Ni-NTA purified; heme protein
T1 sequence (O87605 1-416): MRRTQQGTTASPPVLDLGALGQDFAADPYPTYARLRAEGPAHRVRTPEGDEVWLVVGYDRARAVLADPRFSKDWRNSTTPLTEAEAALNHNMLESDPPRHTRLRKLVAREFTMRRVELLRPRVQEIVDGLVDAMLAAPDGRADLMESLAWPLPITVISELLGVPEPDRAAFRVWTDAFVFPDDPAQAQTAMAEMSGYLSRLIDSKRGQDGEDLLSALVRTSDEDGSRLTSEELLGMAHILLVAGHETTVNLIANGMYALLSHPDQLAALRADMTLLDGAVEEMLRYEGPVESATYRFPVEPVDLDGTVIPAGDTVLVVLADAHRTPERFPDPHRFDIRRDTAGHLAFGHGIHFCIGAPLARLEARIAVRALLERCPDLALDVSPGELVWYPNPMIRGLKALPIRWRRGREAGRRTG
Assay: UV-vis difference spectral titration ([…]-420 nm)
Format: binding

CC[C@H]1OC(=O)[C@H](C)C(=O)[C@H](C)[C@@H](O[C@@H]2O[C@H](C)C[C@H](N(C)C)[C@H]2O)[C@@H](C)C[C@@H](C)C(=O)/C=C/[C@H]1C [compound 5, narbomycin]
Kd: 374 µM

CC[C@H]1OC(=O)[C@H](C)[C@@H](O[C@@H]2O[C@H](C)C[C@H](N(C)C)[C@H]2O)[C@@H](C)C[C@@H](C)C(=O)/C=C/[C@H]1C [compound 4, YC-17]
Kd: 178 µM
